Source: PubChem BioAssay AID434987 (Southern Research Specialized Biocontainment Screening …, 2010)
pIC50: −log10 of the molar value. Activity calls are given as the source filed them. No rule for the calls is given here.

Tested on: M. tuberculosis H37Rv growth inhibition with meropenem
Test: dose response, H37Rv, with and without meropenem (AID 434987);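 also: growth over 7 days at 37 °C before Alamar Blue read on day 9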
[1] = M. tuberculosis H37Rv growth inhibition, measured here: IC50 without meropenem
[2] = M. tuberculosis H37Rv growth inhibition, measured here: IC90 without meropenem
[3] = measured here: IC90 with meropenem

Structure (SMILES) | IC50 | pIC50 [1] | IC90 [2] [µM] | IC90 [3] [µM] | pIC50
CCc1ccc(NC(=S)Nc2ccc(S(=O)(=O)Nc3ncccn3)cc2)cc1 | 61.4 µM (inactive) | < 4.00 | > 100 | > 100 | –
O=C(Nc1ccc(OC(=O)c2ccccc2)c(-c2nc3ccccc3s2)c1)c1ccccc1 | > 100 µM (inactive) | < 4.00 | > 100 | > 100 | –
Cc1ccc(C)c(N2CCN(C3CCCC(C)C3)CC2)c1 (centres undefined) | 37.9 µM (inactive) | 4.31 | > 100 | 48.2 | –
O=C(CCNc1ccc(F)cc1)c1cccc([N+](=O)[O-])c1 | > 100 µM (inactive) | < 4.00 | > 100 | > 100 | –
CC(=O)[C@@]1(O)CC[C@H]2[C@@H]3C[C@H](C)C4=CC(=O)CC[C@]4(C)[C@H]3CC[C@@]21C | > 100 µM (inactive) | < 4.00 | > 100 | > 100 | –
Cc1ccc(C(=O)N2CCC3(CC2)Oc2ccc(F)cc2C(=O)C32CC(c3cccnc3)=NO2)s1 (centres undefined) | 97.5 µM (inactive) | 4.02 | > 100 | > 100 | –
Clc1ccc(-c2csc3ncnc(N4CCc5ccccc5C4)c23)cc1 | 95.4 µM (inactive) | < 4.00 | > 100 | > 100 | –
N#Cc1ccc(C23CC4(C2)[C@H](CN(Cc2cccnc2)[C@@H]4c2ccccc2)C3c2ccccc2)cc1 (some centres undefined) | 56.2 µM (inactive) | 4.14 | > 100 | > 100 | –
Cc1ccc(C)c(NC(=O)c2cc(-c3cccnc3)nc3ccccc23)c1 | > 100 µM (inactive) | < 4.00 | > 100 | > 100 | –
COc1ccc(NC(=O)c2cc(C)nc3ccccc23)c(OC)c1 | – | 4.50 | 69.1 | 12.9 | 4.93
CC(C)(C)C1CCC(OCC(O)CN2CCN(c3ccccn3)CC2)CC1 (centres undefined) | 100 µM (inactive) | < 4.00 | > 100 | > 100 | –
CCCc1c(C)nc2c(OC)cccc2c1SCC(=O)O | > 100 µM (inactive) | < 4.00 | > 100 | > 100 | –
Cc1ccc(C)c(S(=O)(=O)N2CCN(CC(=O)NC(C)c3ccccc3)CC2)c1 (centres undefined) | 98 µM (inactive) | 4.00 | > 100 | > 100 | –
COc1cc(C(=O)Nc2cccc(-c3cn4cccnc4n3)c2)cc(OC)c1OC | – | 4.46 | > 100 | 30.2 | 4.96
COC(=O)c1ccc(/C=N\NC(=O)c2ccc(C)cc2Cl)cc1 | > 100 µM (inactive) | < 4.00 | > 100 | > 100 | –
O=C1CC(Nc2ccc(N3CCOCC3)cc2)C(=O)N1C1CCCCC1 (centres undefined) | > 100 µM (inactive) | < 4.00 | > 100 | > 100 | –
COc1cc(/C=C/C(=O)OCC(=O)Nc2cc(C)c(C)cc2[N+](=O)[O-])ccc1O | 43 µM (inactive) | 4.03 | > 100 | > 100 | –
CCOC(=O)N1CCC(N2CCN(S(=O)(=O)c3ccc(Cl)cc3)CC2)CC1 | > 100 µM (inactive) | < 4.00 | > 100 | > 100 | –
Cc1onc(NC(=O)c2ccc([N+](=O)[O-])o2)c1Br | – | 4.58 | 36 | 16.4 | 5.18

Structure (SMILES) | IC50 | pIC50 [1] | IC90 [2] [µM] | IC90 [3] [µM] | pIC50
O=C1NC(=O)N(Cc2ccco2)C(=O)/C1=C\c1ccc(-c2ccc(F)cc2)o1 | 80.7 µM (inactive) | 4.07 | > 100 | > 100 | –
O=c1c(N=Nc2ccc(O)cc2)c(-c2ccccc2)[nH]n1-c1ccc([N+](=O)[O-])cc1 | > 100 µM (inactive) | < 4.00 | > 100 | > 100 | –
Cc1c2c(nc3c(C(=O)NC4CCCC4)cnn13)CCCC2 | 73.4 µM (inactive) | < 4.00 | > 100 | > 100 | –
O=C(C1=C[C@@H](c2ccc(Br)cc2)C[C@@H](OCc2ccc(CO)cc2)O1)N1CCN(Cc2ccc3c(c2)OCO3)CC1 | 79.3 µM (inactive) | < 4.00 | > 100 | > 100 | –
CCOc1ccc(NC(=O)/C(C#N)=C/c2cn(CC(=O)O)c3ccccc23)cc1 | 95.9 µM (inactive) | < 4.00 | > 100 | > 100 | –
COc1ccccc1CNC(=O)c1cc2c(C)nn(Cc3ccc(F)cc3)c2s1 | > 100 µM (inactive) | < 4.00 | > 100 | > 100 | –
C=CCc1cc(Cl)ccc1OCCCNC(C)CC (centres undefined) | 38.2 µM (inactive) | 4.31 | 55.1 | 51.3 | –
CCN(CC)C(=O)C1CCCN(c2ccc([N+](=O)[O-])cc2/C=N/NC(=O)c2cccc(O)c2)C1 (centres undefined) | 48.1 µM (inactive) | 4.33 | 70.6 | 55.3 | –
O=C1C2CCN(CC2)C1Cc1ccc(OCCOc2ccccc2)cc1 (centres undefined) | > 100 µM (inactive) | < 4.00 | > 100 | > 100 | –
CSc1nsc(SC)c1NC(=O)OCc1ccccc1 | – | < 4.00 | > 100 | > 100 | 4.49
C[C@H](NC(=O)c1[nH]cnc1C(=O)Nc1ccc(Cl)cc1)C(=O)OC(C)(C)C | – | < 4.00 | > 100 | > 100 | 4.98
CCN(CC(=O)Nc1ccc2c(c1)OCCO2)C(=O)c1ccc([N+](=O)[O-])s1 | 23.6 µM (inactive) | 4.57 | 50.7 | 26 | –
O=C(CSc1n[nH]c(=O)n1C1CC1)c1ccc2c(c1)OCCO2 | – | 4.33 | > 100 | > 100 | 5.31
COc1ccc(-c2csc(NC(CO)c3nc4ccccc4n3Cc3ccc(C)cc3)n2)cc1 (centres undefined) | 25 µM (inactive) | 4.32 | 57.2 | 26.4 | –
O=C(OCC(=O)N(Cc1ccccc1)C1CCS(=O)(=O)C1)c1cc2c(s1)CCCC2 (centres undefined) | 90.7 µM (inactive) | 4.03 | > 100 | > 100 | –
CCOc1cc(/C=N\Nc2ccc([N+](=O)[O-])cc2)ccc1OCC(=O)Nc1ccc(C)c(C)c1 | – | < 4.00 | > 100 | > 12.5 | 5.22
CCOC(=O)CNC(=O)c1cccnc1Oc1ccc(Cl)cc1 | – | 4.44 | > 100 | > 100 | 4.94
COc1ccc(N2C(=O)NC(=O)/C(=C\c3ccc([N+](=O)[O-])s3)C2=O)cc1 | 16.3 µM (inactive) | 4.64 | 25.7 | 21.3 | –
S=c1nccc(-c2ccc3c(c2)CCO3)[nH]1 | > 100 µM (inactive) | < 4.00 | > 100 | > 100 | –

Structure (SMILES) | IC50 | pIC50 [1] | IC90 [2] [µM] | IC90 [3] [µM] | pIC50
Cc1cc(NC(=O)CSc2ncnc3c2cnn3-c2ccccc2)no1 | > 100 µM (inactive) | < 4.00 | > 100 | > 100 | –
O=C1OC(/C=C/c2ccc(Cl)cc2Cl)=NC/1=C\c1cccs1 | – | 4.83 | 60.1 | 33.4 | 5.39
Cc1ccc(C)c(N2CCN(CC3CC=CCC3)CC2)c1 (centres undefined) | – | 4.10 | > 100 | 60.7 | 4.59
O=C(COC(=O)Cc1ccc(S(=O)(=O)N2CCCCC2)s1)Nc1ccc2c(c1)OCO2 | 76.2 µM (inactive) | 4.16 | > 100 | > 100 | –
Cc1c(NC(=O)c2noc3c2CCc2ccccc2-3)c(=O)n(-c2ccccc2)n1C | – | < 4.00 | > 100 | > 50 | 4.55
CCC(=O)NC(=S)Nc1ccc(NC(=O)c2cccc([N+](=O)[O-])c2C)cc1 | > 100 µM (inactive) | < 4.00 | > 100 | > 100 | –
CCOCC(=O)Nc1ccc(F)c(F)c1 | 81.2 µM (inactive) | 4.02 | > 100 | > 100 | –
CCn1c(O)c(/C=N/NC(=O)c2ccccc2)c(=O)n(CC)c1=S | – | < 4.00 | > 100 | > 100 | 4.79
CCc1ccc2oc(-c3cc(N)cc(C)c3O)nc2c1 | 76.1 µM (inactive) | 4.03 | > 100 | > 100 | –
COc1cc(-c2nc(S(=O)(=O)c3ccc(C)cc3)c(N3CCOCC3)o2)cc(OC)c1OC | > 100 µM (inactive) | < 4.00 | > 100 | > 100 | –
O=C(Nc1nc(-c2ccc3c(c2)OCCO3)cs1)c1ccc(S(=O)(=O)N2CCCCC2)cc1 | > 100 µM (inactive) | < 4.00 | > 100 | > 100 | –
CCOC(=O)c1ccc(N2CN(C3CCCCC3)CNC2=S)cc1 | – | < 4.00 | > 100 | > 100 | 4.45
COC(=O)[C@@]1(Cc2ccc(F)cc2)[C@H]2c3cc(C(=O)N(C)C)n(Cc4ccc(OC)c(OC)c4)c3C[C@H]2CN1C(=O)c1ccccc1 | > 100 µM (inactive) | < 4.00 | > 100 | > 100 | –
COc1ccc(-c2cc3cc(OC)c(OC)cc3c(C)n2)cc1 | > 100 µM (inactive) | < 4.00 | > 100 | > 100 | –
Cc1ccsc1/C=N/Nc1ncc(Cl)cc1Cl | – | 4.29 | > 100 | > 100 | 5.05
O=C(N/N=C/c1cccc(Br)c1)c1ccc(Cn2cc(Br)cn2)o1 | 99.8 µM (inactive) | < 4.00 | > 100 | > 100 | –
O=c1[nH]c(C2CCN(S(=O)(=O)c3ccc(S(=O)(=O)NC4CC4)cc3)CC2)nc2c1nnn2Cc1ccc(F)cc1 | > 100 µM (inactive) | < 4.00 | > 100 | > 100 | –
Cc1ccnn1CC(=O)N/N=C/c1ccc([N+](=O)[O-])s1 | 91.5 µM (inactive) | 4.05 | 95.9 | > 100 | –
